Test results reported in paper PMC8004798, “Identification of Bioactive Compounds from Marine Natural Products and Exploration of Structure-Activity Relationships (SAR)” (Antibiotics, 2021).
≈ marks a conversion by molar mass, not a printed value. Like-named read-outs stand apart in the source and are kept apart here.

Assays:
[1] = tested on: human embryonic kidney cells 293 (HEK293); experiment: Resazurin cytotoxicity assay, HEK 293
Source text: (§1) To identify marine samples with activity against MRSA, 1434 compounds from the AIMS Bioresources Library (provided by the Queensland Compound Library, Brisbane, Australia, now called Compounds Australia) were screened in a resazurin cell viability assay.
(§2) Toxicity of AIMS Extract Library. Human alveolar epithelial cells (A549), Madin-Darby canine kidney epithelial cells (MDCK), human leukaemia cells (THP-1), human hepatocellular carcinoma cells (Hep-G2) and human embryonic kidney cells 293 (HEK293) were grown and differentiated in complete RPMI (Roswell Park Memorial Institute Medium) and DMEM (Dulbecco’s Modified Eagle’s medium) tissue culture media (RPMIc and DMEMc, from the Thermo Fisher Scientific, Waltham, MA, USA) by adding 10% FBS, 200 µM L-glutamine and 1 mM HEPES buffer solution. To determine toxicity of the AIMS extract library, 2 × 10^5 of each cell type were added to a 96-well plate and left for 48 h in a humidified 5% CO2 incubator at 37 °C to adhere. Extract samples at a final concentration of 0.5 mg mL^−1 were added to the wells, then the plates incubated for 4 more days in a humidified 5% CO2 incubator at 37 °C. Then, resazurin (10 μL of 0.05% w/v) was added and after 4 h, fluorescence measured as described previously. The cell viability was calculated as percentage fluorescence relative to untreated cells.

[2] = tested on: methicillin-resistant Staphylococcus aureus (MRSA); experiment: Resazurin bacterial inhibition assay (MIC), MRSA; format: cell-based; conditions: commercial compounds, 18 h, resazurin, read-out: Minimum Inhibitory Concentration MRSA
[3] = tested on: M. tuberculosis H37Rv; experiment: Resazurin bacterial inhibition assay (MIC), M. tuberculosis; format: cell-based; conditions: Mycobacterium tuberculosis, 168 h, commercial compounds, 7 days, read-out: Minimum Inhibitory Concentration M. tuberculosis H37Rv
[4] = tested on: human leukaemia cells (THP-1); experiment: Resazurin cytotoxicity assay, THP-1
Source text: as §1
as §2, with “Extract samples at a final concentration of 0.5 mg mL^−1 were added to the wells, then the plates incubated for 4 more days in a humidified 5% CO2 incubator at 37 °C.” left out

[5] = tested on: human hepatocellular carcinoma cells (Hep-G2); experiment: Resazurin cytotoxicity assay, HepG2
Source text: as §1, §2

[6] = tested on: E. coli EC958; experiment: Resazurin bacterial inhibition assay (MIC), E. coli; format: cell-based; conditions: commercial compounds, 18 h, resazurin, read-out: Minimum Inhibitory Concentration E. coli
[7] = tested on: P. aeruginosa PAO1; experiment: Resazurin bacterial inhibition assay (MIC), P. aeruginosa; format: cell-based; conditions: Pseudomonas aeruginosa, PAO1; commercial compounds; 18 h, resazurin; read-out: Minimum Inhibitory Concentration P. aeruginosa
[8] = tested on: Human alveolar epithelial cells (A549); experiment: Resazurin cytotoxicity assay, A549
Source text: as §1, §2

[9] = commercial compounds, unit from Table 8 head
[10] = commercial compounds, unit from Table 8 head, listed as 1,10 phenanthroline

SMILES | Minimum Toxicity Concentration HEK 293 [1, 9] [µM] | MIC ([2]; Staphylococcus aureus, MRSA) [µM] | MIC [3] [µM] | Minimum Toxicity Concentration THP-1 [4, 9] [µM] | Minimum Toxicity Concentration HepG2 [5, 9] [µM] | MIC ([6]; Escherichia coli, EC958) [µM] | MIC [7] [µM] | Minimum Toxicity Concentration A549 [8, 9] [µM] | Minimum Toxicity Concentration HEK 293 ([1]; human, 4 days) [µM] | Minimum Toxicity Concentration THP-1 ([4]; human, 4 days) [µM] | Minimum Toxicity Concentration HepG2 ([5]; human, 4 days) [µM] | Minimum Toxicity Concentration A549 ([8]; human, 4 days) [µM] | MIC [6] [µM] | Minimum Toxicity Concentration HEK 293 [1, 10] [µM] | Minimum Toxicity Concentration THP-1 [4, 10] [µM] | Minimum Toxicity Concentration A549 [8, 10] [µM] | MIC [2] [µM]
c1ccc(CN(Cc2ccccc2)Cc2ccccc2)cc1 [Tribenzylamine] | >100 | > 100 | > 100 | >100 | >100 | > 100 | 6.5 (≈ 1.87 µg/mL) | >100 | – | – | – | – | – | – | – | – | –
Cc1ccnc2c1ccc1c(C)ccnc12 [4,7-Dimethyl-1,10-Phenanthrolin] | – | 0.3 (≈ 0.0625 µg/mL) | 0.1 (≈ 0.0208 µg/mL) | – | – | 0.3 (≈ 0.0625 µg/mL) | 0.1 (≈ 0.0208 µg/mL) | – | 0.1 | 0.1 | 0.1 | 0.1 | – | – | – | – | –
c1cnc2ccc3ncccc3c2c1 [4,7-phenanthroline] | >100 | 1.5 (≈ 0.27 µg/mL) | 2.5 (≈ 0.451 µg/mL) | >100 | >100 | 1.5 (≈ 0.27 µg/mL) | 2.5 (≈ 0.451 µg/mL) | >100 | – | – | – | – | – | – | – | – | –
c1ccc(-c2ccccn2)nc1 [2,2′-Bipyridine] | 3 | > 100 | 0.1 (≈ 0.0156 µg/mL) | 50 | 3 | > 100 | > 100 | >100 | – | – | – | – | – | – | – | – | –
c1ccc(-c2ccnc3c2ccc2c(-c4ccccc4)ccnc23)cc1 [Bathophenanthroline] | – | 0.09 (≈ 0.0299 µg/mL) | 0.01 (≈ 0.00332 µg/mL) | – | – | 0.019 (≈ 0.00632 µg/mL) | 0.03 (≈ 0.00997 µg/mL) | – | 25 | 13 | 1.5 | 3 | 0.019 (≈ 0.00632 µg/mL) | – | – | – | –
C1CCC(NC2CCCCC2)CC1 [Dicyclohexylamine] | >100 | > 100 | > 100 | >100 | >100 | > 100 | 12.5 (≈ 2.27 µg/mL) | >100 | – | – | – | – | – | – | – | – | –
c1cnc2c(c1)ccc1ncccc12 [1,7-phenanthroline] | >100 | 25 (≈ 4.51 µg/mL) | > 100 | >100 | >100 | 25 (≈ 4.51 µg/mL) | 2.5 (≈ 0.451 µg/mL) | >100 | – | – | – | – | – | – | – | – | –
c1cnc2c(c1)ccc1cccnc12 [1,10-phenanthroline] | 50 | > 100 | 0.1 (≈ 0.018 µg/mL) | 0.1 | 0.1 | 50 (≈ 9.01 µg/mL) | 0.3 (≈ 0.0541 µg/mL) | 3 | – | – | – | – | – | 0.1 | 3 | 50 | –
CCCCCCCCNCCCCCCCC [Dioctylamine] | >100 | 6.2 (≈ 1.5 µg/mL) | > 100 | >100 | >100 | 6.2 (≈ 1.5 µg/mL) | 3 (≈ 0.724 µg/mL) | >100 | – | – | – | – | – | – | – | – | –
O=C1C(=O)c2cccnc2-c2ncccc21 [1,10-Phenanthroline-5,6-dione] | – | 0.04 (≈ 0.00841 µg/mL) | 0.1 (≈ 0.021 µg/mL) | – | – | 0.04 (≈ 0.00841 µg/mL) | 0.04 (≈ 0.00841 µg/mL) | – | 0.1 | 0.1 | 0.1 | 0.1 | – | – | – | – | 0.04 (≈ 0.00841 µg/mL)
CCN(CC)CC [Triethylamine] | – | > 100 | > 100 | – | – | > 100 | > 100 | – | >100 | >100 | >100 | >100 | – | – | – | – | –
